Source: ChEMBL document CHEMBL1125092, “Nonneurotoxic tetralin and indan analogues of 3,4-(methylenedioxy)amphetamine (MDA)” (J Med Chem, 1990)

Assays:
[1] = organism: Rattus norvegicus; test: Compounds were evaluated for binding of [3H]paroxetine to rat brain cortical homogenate and number of binding sites (Bmax) for serotonin; format: tissue-based
[2] = Binding affinity was determined towards serotonin uptake site in presence of [3H]paroxetine radioligand in rat brain cortical homogenate; format: tissue-based
[3] = Binding affinity was determined towards serotonin uptake site in presence of [3H]paroxetine radioligand in rat hippocampal homogenate; format: tissue-based, Hippocampus
[4] = organism: Rattus norvegicus; test: Compounds were evaluated for binding of [3H]paroxetine to rat hippocampal homogenate and number of binding sites (Bmax) for serotonin; format: tissue-based; details: Hippocampus
[5] = tested on: Rattus norvegicus; test: Hallucinogenic property was determined in groups of LSD trained rats and percentage of animals disrupted was reported at a dose 13.18 (umol/kg),(number of animals = 15); format: functional
[6] = tested on: Rattus norvegicus; test: Hallucinogenic property was determined in groups of LSD trained rats and percentage of animals disrupted was reported at a dose 17.57(umol/kg), (number of animals =21); format: functional
[7] = tested on: Rattus norvegicus; test: Hallucinogenic property was determined in groups of LSD trained rats and percentage of animals disrupted was reported at a dose 2.2 (umol/kg), (number of animals = 15); format: functional
[8] = tested on: Rattus norvegicus; test: Hallucinogenic property was determined in groups of MDMA trained rats and percentage of animals disrupted was reported at a dose 17.57(umol/kg), (number of animals =11); format: functional
[9] = tested on: Rattus norvegicus; test: Hallucinogenic property was determined in groups of MDMA trained rats and percentage of animals disrupted was reported at a dose 2.2 (umol/kg), (number of animals =9); format: functional
[10] = tested on: Rattus norvegicus; test: Hallucinogenic property was determined in groups of MDMA trained rats and percentage of animals disrupted was reported at a dose 4.39 (umol/kg),(number of animals = 9); format: functional
[11] = tested on: Rattus norvegicus; test: Hallucinogenic property was determined in groups of MDMA trained rats and percentage of animals disrupted was reported at a dose 8.78 (umol/kg), (number of animals = 8); format: functional
[12] = tested on: Rattus norvegicus; test: Hallucinogenic property was determined in groups of LSD trained rats and percentage of animals disrupted was reported at a dose 8.78 (umol/kg), (number of animals = 16); format: functional
[13] = tested on: Rattus norvegicus; test: Hallucinogenic property was determined in groups of LSD trained rats and percentage of animals disrupted was reported at 4.39 (umol/kg),(number of animals =11); format: functional
[14] = tested on: Rattus norvegicus; test: Monoamine levels in at hippocampus were evaluated after subcutaneous administration of 40 mg/kg for NE; format: functional
[15] = tested on: Rattus norvegicus; test: Monoamine levels in rat brain were evaluated after subcutaneous administration of 40 mg/kg for 5-HIAA; format: functional
[16] = tested on: Rattus norvegicus; test: Monoamine levels in rat brain were evaluated after subcutaneous administration of 40 mg/kg for 5-HT; format: functional
[17] = tested on: Rattus norvegicus; test: Monoamine levels in rat brain were evaluated after subcutaneous administration of 40 mg/kg for DA; format: functional
[18] = tested on: Rattus norvegicus; test: Monoamine levels in rat brain were evaluated after subcutaneous administration of 40 mg/kg for DOPAC; format: functional
[19] = tested on: Rattus norvegicus; test: Monoamine levels in rat brain were evaluated after subcutaneous administration of 40 mg/kg for HVA; format: functional
[20] = tested on: Rattus norvegicus; test: Monoamine levels in rat hippocampus were evaluated after subcutaneous administration of 40 mg/kg for 5-HIAA; format: functional
[21] = tested on: Rattus norvegicus; test: Monoamine levels in rat hippocampus were evaluated after subcutaneous administration of 40 mg/kg for 5-HT; format: functional
[22] = tested on: Rattus norvegicus; test: Tested for stimulus generation in rats trained to discriminate LSD from saline at a dose 2.2 (umol/kg), (number of animals = 15); format: functional
[23] = tested on: Rattus norvegicus; test: Tested for stimulus generation in rats trained to discriminate +/-MDMA from saline at 17.57 (umol/kg), (number of animals =11); format: functional
[24] = tested on: Rattus norvegicus; test: Tested for stimulus generation in rats trained to discriminate LSD from saline at a dose 4.39 (umol/kg),(number of animals =11); format: functional
[25] = tested on: Rattus norvegicus; test: Tested for stimulus generation in rats trained to discriminate +/-MDMA from saline at 8.78 (umol/kg), (number of animals = 8); format: functional
[26] = tested on: Rattus norvegicus; test: Tested for stimulus generation in rats trained to discriminate LSD from saline at a dose 8.78 (umol/kg), (number of animals = 16); format: functional
[27] = tested on: Rattus norvegicus; test: Tested for stimulus generation in rats trained to discriminate +/-MDMA from saline at 2.2 (umol/kg), (number of animals =9); format: functional
[28] = tested on: Rattus norvegicus; test: Tested for stimulus generation in rats trained to discriminate +/-MDMA from saline at 4.39 (umol/kg),(number of animals = 9); format: functional
[29] = tested on: Rattus norvegicus; test: Monoamine levels in rat brain were evaluated after subcutaneous administration of 40 mg/kg for NE; format: functional
[30] = tested on: Rattus norvegicus; test: Hallucinogenic property was determined in groups of LSD trained rats and percentage of animals disrupted was reported at a dose 1.17 (umol/kg),(number of animals = 10); format: functional
[31] = tested on: Rattus norvegicus; test: Hallucinogenic property was determined in groups of LSD trained rats and percentage of animals disrupted was reported at a dose 18.72 (umol/kg),(number of animals = 5); format: functional
[32] = tested on: Rattus norvegicus; test: Hallucinogenic property was determined in groups of LSD trained rats and percentage of animals disrupted was reported at a dose 9.36 (umol/kg),(number of animals = 10); format: functional
[33] = tested on: Rattus norvegicus; test: Hallucinogenic property was determined in groups of MDMA trained rats and percentage of animals disrupted was reported at 18.72 (umol/kg),(number of animals = 5); format: functional
[34] = tested on: Rattus norvegicus; test: Hallucinogenic property was determined in groups of MDMA trained rats and percentage of animals disrupted was reported at 28.08 (umol/kg),(number of animals = 4); format: functional
[35] = tested on: Rattus norvegicus; test: Hallucinogenic property was determined in groups of MDMA trained rats and percentage of animals disrupted was reported at a dose 1.17 (umol/kg), (number of animals =6); format: functional
[36] = tested on: Rattus norvegicus; test: Hallucinogenic property was determined in groups of MDMA trained rats and percentage of animals disrupted was reported at a dose 2.34 (umol/kg), (number of animals = 8); format: functional
[37] = tested on: Rattus norvegicus; test: Hallucinogenic property was determined in groups of MDMA trained rats and percentage of animals disrupted was reported at a dose 4.68 (umol/kg), (number of animals = 10); format: functional
[38] = tested on: Rattus norvegicus; test: Hallucinogenic property was determined in groups of MDMA trained rats and percentage of animals disrupted was reported at a dose 9.36 (umol/kg), (number of animals = 9); format: functional
[39] = tested on: Rattus norvegicus; test: Hallucinogenic property was determined in groups of LSD trained rats and percentage of animals disrupted was reported at a dose 4.68 (umol/kg),(number of animals = 10); format: functional
[40] = tested on: Rattus norvegicus; test: Hallucinogenic property was determined in groups of LSD trained rats and percentage of animals disrupted was reported at 2.34 (umol/kg),(number of animals = 13); format: functional
[41] = tested on: Rattus norvegicus; test: Tested for stimulus generation in rats trained to discriminate LSD from saline at a dose 1.17 (umol/kg),(number of animals = 10); format: functional
[42] = tested on: Rattus norvegicus; test: Tested for stimulus generation in rats trained to discriminate LSD from saline at a dose 2.34 (umol/kg),(number of animals = 13); format: functional
[43] = tested on: Rattus norvegicus; test: Tested for stimulus generation in rats trained to discriminate +/-MDMA from saline at 9.36 (umol/kg), (number of animals = 9); format: functional
[44] = tested on: Rattus norvegicus; test: Tested for stimulus generation in rats trained to discriminate LSD from saline at a dose 4.68 (umol/kg),(number of animals = 10); format: functional
[45] = tested on: Rattus norvegicus; test: Tested for stimulus generation in rats trained to discriminate +/-MDMA from saline at 1.17 (umol/kg), (number of animals = 6); format: functional
[46] = tested on: Rattus norvegicus; test: Tested for stimulus generation in rats trained to discriminate +/-MDMA from saline at 4.68 (umol/kg), (number of animals = 10); format: functional
[47] = tested on: Rattus norvegicus; test: Tested for disruption in more than 50% rats trained to discriminate LSD from saline at a dose 18.72 (umol/kg) (no. of animals =5); format: functional
[48] = tested on: Rattus norvegicus; test: Tested for stimulus generation in rats trained to discriminate LSD from saline at a dose 9.36 (umol/kg), (number of animals = 10); format: functional
[49] = tested on: Rattus norvegicus; test: Tested for stimulus generation in rats trained to discriminate +/-MDMA from saline at 18.72 (umol/kg),(number of animals = 5); format: functional
[50] = tested on: Rattus norvegicus; test: Tested for stimulus generation in rats trained to discriminate +/-MDMA from saline at 2.34 (umol/kg), (number of animals = 8); format: functional

SMILES: NC1CCc2cc3c(cc2C1)OCO3 (stereo not given)
- Bmax [1]: 964 fM/g
- Kd [2]: 0.102 nM
- Kd [3]: 0.118 nM
- Bmax [4]: 778 fM/g
- D [5]: 67%
- D [6]: 64%
- D [7]: 47%
- D [8]: 27%
- D [9]: 11%
- D [10]: 11%
- D [11]: 0%
- D [12]: 50%
- D [13]: 27%
- Monoamine level [14]: 484 pg/mg
- Monoamine level [15]: 370 pg/mg
- Monoamine level [16]: 356 pg/mg
- Monoamine level [17]: 151 pg/mg
- Monoamine level [18]: 213 pg/mg
- Monoamine level [19]: 262 pg/mg
- Monoamine level [20]: 549 pg/mg
- Monoamine level [21]: 256 pg/mg
- SDL [22]: 25%
- SDL [23]: 88%
- SDL [24]: 38%
- SDL [25]: 63%
- SDL [26]: 63%
- SDL [27]: 13%
- SDL [28]: 50%
- Monoamine level [29]: 367 pg/mg

SMILES: NC1Cc2ccc3c(c2C1)OCO3 (stereo not given)
- D [30]: 20%
- D [31]: 100%
- D [32]: 20%
- D [33]: 0%
- D [34]: 50%
- D [35]: 0%
- D [36]: 13%
- D [37]: 20%
- D [38]: 11%
- D [39]: 20%
- D [40]: 44%
- SDL [41]: 38%
- SDL [42]: 25%
- SDL [43]: 25%
- SDL [44]: 13%
- SDL [45]: 0%
- SDL [46]: 13%
- SDL [47]: 0%
- SDL [48]: 25%
- SDL [49]: 0%
- SDL [50]: 29%
